Results on 1 molecule are retold here after PMC3725310 (Nature, 2013).

For orientation: pKd means the negative decadic logarithm of the Kd, by convention in mol/L. Low values mean a large Kd, high ones a small Kd.

Each structure is given as a SMILES string. pKd: −log10 of the molar value.

The assay concerns the target p7(5a) (Hepatitis C virus (isolate EUH1480), UniProt O39928, A759S/C749A/C774T/C791S/T748G). The assay can be described thus: biochemical. Format: binding.

Take `CC(N)C12CC3CC(CC(C3)C1)C2` (stereo not shown) [rimantadine]: the pKd is 4.00 to 4.30.
